Results published in PMC6686047, “Efficient Inhibition of Human Papillomavirus Infection by L2 Minor Capsid-Derived Lipopeptide” (mBio, 2019).
Bridge positions count the residues as written; N and C are the ends. Ends that are not written are not given here. Peptide text beside a SMILES is read from it. * marks the point of attachment. FITC = O=C1OC2(c3ccc(O)cc3Oc3cc(O)ccc32)c2ccc(NC(=S)*)cc21; Stearoyl = CCCCCCCCCCCCCCCCCC(=O)*

Columns and labels:
[1] = test system: HPV-GFP (HPV16 pseudovirus carrying GFP); format: cell-based; details: HeLa cells; ∼500 nM lipopeptide during inoculation; GFP at 36 hpi
[2] = test system: HPV-Lucia (HPV16 pseudovirus carrying Lucia); details: for Relative anti-HPV activity: CHO-K1 cells, HPV-Lucia, Lucia activity at 36 hpi, potency compared with WT peptide (13-48, 100%) used at four concentrations; for IC50: 4 h
[3] = test system: HeLa cells; assay: L2N-FITC peptide binding and uptake assay; format: cell-based, homo sapiens; details: 500 nM FITC-m13-46st for indicated times, three PBS washes, fluorescence imaging
Procedure: (§1) FIG 5 The L2N lipopeptide blocks HPV entry without affecting HPV capsid priming and internalization. (A) Cell binding and uptake of L2N lipopeptide. HeLa cells were incubated with 500 nM FITC-m13-46st peptide for indicated times. Images were captured after three PBS washes. Bar, 25 μm. (B) L2N lipopeptide inhibits HPV-GFP entry. HeLa cells were treated with 500 nM L2N lipopeptide (13-46st) before (pre), during (co), or after (post) HPV-GFP inoculation. Mock, no peptide treatment. GFP intensity was analyzed at 36 hpi. Bar, 200 μm. (C) Peptide addition/withdrawal assays were performed as indicated in the schematic diagram (top). CHO-K1 cells were incubated with HPV-Lucia at 4°C for 2 h. The 13-46st lipopeptide (500 nM) was subsequently added or withdrawn from the medium 1, 2, 4, 8, and 16 h after viral attachment. Lucia activity was analyzed at 40 hpi. (D) CHO-K1 cells were infected with HPV-L2-PSTCD-3×FLAG (MOI of 50) and treated with the indicated chemicals: 500 nM dRVRK, 500 nM L2N lipopeptide 13-46st (L2N), 100 nM BafA1, and 1 μM γ-secretase inhibitor XXI. L2 immunoblotting was performed with anti-FLAG antibody at 16 hpi. […] Intracellular L1 and L2 levels were determined by immunoblotting with MD2H11 and JWW-1, respectively. […] HPV L2 JWW-1 epitope exposure was analyzed by immunostaining with JWW-1 antibody (in red). […]

[4] = test system: furin cleavage of HPV L2; assay: Furin cleavage of PSTCD-fused L2 (immunoblot); format: cell-based, HPV16; details: CHO-K1 cells, HPV-L2-PSTCD-3×FLAG MOI of 50; 500 nM dRVRK, 500 nM 13-46st, 100 nM BafA1, 1 μM γ-secretase inhibitor XXI; anti-FLAG immunoblot
Procedure: as §1, with “The 13-46st lipopeptide (500 nM) was subsequently added or withdrawn from the medium 1, 2, 4, 8, and 16 h after viral attachment.” left out, “40” for “40 hpi. (D) CHO-K1 cells were infected with HPV-L2-PSTCD-3×FLAG (MOI of 50) and treated with the indicated chemicals: 500 nM dRVRK, 500 nM L2N lipopeptide 13-46st (L2N), 100 nM BafA1, and 1 μM γ-secretase inhibitor XXI. L2 immunoblotting was performed with anti-FLAG antibody at 16”
To further dissect how the L2N lipopeptide interfered with HPV entry, we tested whether furin cleavage, internalization, and JWW-1 epitope exposure of HPV were affected by peptide treatment in either CHO-K1 cells or HeLa cells. Furin cleavage was analyzed by infection of HPV PsV carrying Propionibacterium shermanii transcarboxylase domain (PSTCD)-fused L2. […] Internalization of viral particles was analyzed by detecting intracellular L1 and L2 at 2 h postinfection.

Compound: 13-48CVIM: HPV16 L2N13-48 lipopeptide produced in 293T cells, CVIM motif isoprenylated (geranylgeranylation), released by furin
- inhibition of HPV-GFP infection by L2N-CVIM lipopeptides (in words) [1]: suppressed HPV-GFP infection
- Relative anti-HPV activity [2]: 100%

Compound: 13-55CVIM: HPV16 L2N13-55 lipopeptide produced in 293T cells, CVIM motif isoprenylated, released by furin
- inhibition of HPV-GFP infection by L2N-CVIM lipopeptides (in words) [1]: suppressed HPV-GFP infection
- Relative anti-HPV activity [2]: 10%

Compound: CCCCCCCCCCCCCCCCCC(=O)NCCCC[C@H](NC(=O)[C@H](CO)NC(=O)CNC(=O)[C@H](Cc1ccc(O)cc1)NC(=O)[C@H](CCC(N)=O)NC(=O)[C@H](CC(C)C)NC(=O)[C@@H](NC(=O)[C@H](CCC(N)=O)NC(=O)[C@H](CCCCN)NC(=O)[C@H](C)NC(=O)[C@@H](NC(=O)[C@@H](NC(=O)[C@H](CCCCN)NC(=O)CNC(=O)[C@H](CCC(=O)O)NC(=O)[C@@H](NC(=O)[C@H](CCCCN)NC(=O)[C@@H]1CCCN1C(=O)[C@@H](NC(=O)[C@@H](NC(=O)[C@H](CC(=O)O)NC(=O)[C@@H]1CCCN1C(=O)[C@@H]1CCCN1C(=O)[C@@H]1CSSC[C@H](NC(=O)[C@@H](NC(=O)[C@H](CCCCN)NC(=O)[C@H](Cc2ccc(O)cc2)NC(=O)[C@H](CC(C)C)NC(=O)[C@H](CCC(N)=O)NC(=O)[C@@H](NC(=O)[C@H](C)NC(=O)[C@H](CO)NC(=O)[C@H](C)N)[C@@H](C)O)[C@@H](C)O)C(=O)N[C@@H](CCCCN)C(=O)N[C@@H](CCC(N)=O)C(=O)N[C@@H](C)C(=O)NCC(=O)N[C@@H]([C@@H](C)O)C(=O)N1)[C@@H](C)CC)[C@@H](C)CC)C(C)C)[C@@H](C)O)[C@@H](C)CC)[C@@H](C)CC)C(=O)O [13-50st-D43K] (H-ASATQLYKTCKQAGTCPPDIIPKVEGKTIAKQILQYGSK(Stearoyl)-OH; disulfide 10-16)
- IC50 [2]: 200 nM

Compound: CCCCCCCCCCCCCCCCCC(=O)NCCCC[C@H](NC(=O)[C@H](CO)NC(=O)CNC(=O)[C@H](Cc1ccc(O)cc1)NC(=O)[C@H](CCC(N)=O)NC(=O)[C@H](CC(C)C)NC(=O)[C@@H](NC(=O)[C@H](CCC(N)=O)NC(=O)[C@H](CC(=O)O)NC(=O)[C@H](C)NC(=O)[C@@H](NC(=O)[C@@H](NC(=O)[C@H](CCCCN)NC(=O)CNC(=O)[C@H](CCC(=O)O)NC(=O)[C@@H](NC(=O)[C@H](CCCCN)NC(=O)[C@@H]1CCCN1C(=O)[C@@H](NC(=O)[C@@H](NC(=O)[C@H](CC(=O)O)NC(=O)[C@@H]1CCCN1C(=O)[C@@H]1CCCN1C(=O)[C@@H]1CSSC[C@H](NC(=O)[C@@H](NC(=O)[C@H](CCCCN)NC(=O)[C@H](Cc2ccc(O)cc2)NC(=O)[C@H](CC(C)C)NC(=O)[C@H](CCC(N)=O)NC(=O)[C@@H](NC(=O)[C@H](C)NC(=O)[C@H](CO)NC(=O)[C@H](C)N)[C@@H](C)O)[C@@H](C)O)C(=O)N[C@@H](CCCCN)C(=O)N[C@@H](CCC(N)=O)C(=O)N[C@@H](C)C(=O)NCC(=O)N[C@@H]([C@@H](C)O)C(=O)N1)[C@@H](C)CC)[C@@H](C)CC)C(C)C)[C@@H](C)O)[C@@H](C)CC)[C@@H](C)CC)C(=O)O [13-50st] (H-ASATQLYKTCKQAGTCPPDIIPKVEGKTIADQILQYGSK(Stearoyl)-OH; disulfide 10-16)
- IC50 [2]: 30 nM

Compound: CCCCCCCCCCCCCCCCCC(=O)NCCCC[C@H](NC(=O)[C@H](CCCCNC(=S)Nc1ccc2c(c1)C(=O)OC21c2ccc(O)cc2Oc2cc(O)ccc21)NC(=O)[C@H](CO)NC(=O)CNC(=O)[C@H](CC(C)C)NC(=O)[C@@H](NC(=O)[C@H](CCCNC(=N)N)NC(=O)[C@H](CC(=O)O)NC(=O)[C@H](C)NC(=O)[C@H](CC(C)C)NC(=O)[C@@H](NC(=O)[C@H](CC(N)=O)NC(=O)CNC(=O)[C@H](CCC(=O)O)NC(=O)[C@@H](NC(=O)[C@H](CCCCN)NC(=O)[C@H](CC(N)=O)NC(=O)[C@@H](NC(=O)[C@@H](NC(=O)[C@H](CC(=O)O)NC(=O)[C@@H]1CCCN1C(=O)[C@@H]1CCCN1C(=O)[C@@H]1CSSC[C@H](NC(=O)[C@H](CCC(N)=O)NC(=O)[C@H](CCCNC(=N)N)NC(=O)[C@H](Cc2ccc(O)cc2)NC(=O)[C@H](CC(C)C)NC(=O)[C@H](CC(N)=O)NC(=O)[C@H](CO)NC(=O)[C@H](C)NC(=O)[C@H](CO)NC(=O)[C@@H](N)CC(=O)O)C(=O)N[C@@H](CCC(N)=O)C(=O)N[C@@H](C(C)C)C(=O)N[C@@H]([C@@H](C)O)C(=O)NCC(=O)N[C@@H](CC(N)=O)C(=O)N1)C(C)C)C(C)C)C(C)C)[C@@H](C)O)[C@@H](C)CC)C(=O)O [FITC-m13-46st] (H-DSASNLYRQCQVTGNCPPDVVNKVEGNTLADRILGSK(FITC)K(Stearoyl)-OH; disulfide 10-16)
- cell binding and uptake of the lipopeptide [3]: readily detected on HeLa cells at 15 min postincubation, and significant internalization was observed at 30 min postincubation and became apparent at 2 h postincubation
- IC50 [2]: < 10 nM

Compound: CCCCCCCCCC(=O)N[C@@H](CCCN=C(N)N)C(=O)N[C@H](C(=O)N[C@@H](CCCCN)C(=O)N[C@@H](CCCN=C(N)N)C(=O)CCl)C(C)C [dRVRK] (HELM PEPTIDE1{[CCCCCCCCCC(=O)[*:2]].R.V.K.R.[ClC[*:1]]}$$$$V2.0)
- furin cleavage of L2 [4]: furin cleavage was inhibited

Compound: ASATQLYKTCKQAGTCPPDIIPKVEGKTIADQILQYGSMGVFF (disulfide 10-16) [13-55-no st]
- IC50 [2]: > 1000 nM

Compound: ASATQLYKTCKQAGTCPPDIIPKVEGKTIADQILQYGSMGVFFK(Stearoyl) (disulfide 10-16) [13-55st]
- IC50 [2]: 100 nM

Compound: SVIM: L2N13-48 peptide with cysteine-to-serine mutation in the CVIM motif, negative control
- inhibition of HPV-GFP infection by L2N-CVIM lipopeptides (in words) [1]: completely abolished their ability to inhibit HPV-GFP infection
- Relative anti-HPV activity [2]: 0%

Compound: pZeo5-tSA-Furin-13-44GT-CVIM: HPV16 L2N13-48 lipopeptide with deletion of ILQY
- Relative anti-HPV activity [2]: < 0.8%

Compound: pZeo5-tSA-Furin-13-46-CVIM: HPV16 L2N13-46 lipopeptide with deletion of QYGT
- Relative anti-HPV activity [2]: 5%

Compound: pZeo5-tSA-Furin-13-46GT-CVIM: HPV16 L2N lipopeptide with L2N13-46
- Relative anti-HPV activity [2]: 200%

Compound: pZeo5-tSA-Furin-13-48GT-CVIM-D31K: HPV16 L2N13-48 lipopeptide with D31K
- Relative anti-HPV activity [2]: 20%

Compound: pZeo5-tSA-Furin-13-48GT-CVIM-QQKK: HPV16 L2N13-48 lipopeptide with double Q44K and Q47K
- Relative anti-HPV activity [2]: 150%

Compound: pZeo5-tSA-Furin-13-48GT-CVIM-d42: HPV16 L2N13-48 lipopeptide with deletion of A42 (ASATQLYKTCKQAGTCPPDIIPKVEGKTIEQILQY; not fully specified (C-terminus); cysteine pairing not given here; also: CVIM isoprenylation motif lipopeptide; UniProt P03107 13-48, looked up, variant A42*)
- Relative anti-HPV activity [2]: < 1%
